In this test the test system is LPS-induced TNFα production. Kind of test: LPS-induced TNFα production in rats. The format is in vivo. The conditions noted are these: Rattus norvegicus, po, pretreated orally. The method, then:
Male Lewis rats (180-200 g) from Charles River Breeding Laboratories (Portage) ACUC Protocol#05051 were pretreated orally with compound or vehicle. After a determined pretreatment time, the rats were given LPS (lipopolysaccharide from Escherichia coli Serotype 055-B5, Sigma Chemical Co., St Louis, Mo.) 30 μg/rat in 0.5 ml saline, intraperitoneally. The rats were euthanized by CO2 inhalation 90 minutes after the LPS injection and blood samples were collected by cardiac puncture, transferred into heparinized tubes and stored on ice. The blood samples were centrifuged at 2000 rpm for 10 minutes and the plasma collected for analysis by specific ELISA for TNFα levels.
The plasma samples were assayed for TNFα according to manufactures specifications. TNFα levels were expressed as pg/ml. Elisa kits were purchased from R&D Systems Inc. (Rat TNFα Quantikine Kit Catalog#RTA00).

As to `O=S(=O)(NCCO)c1ccc(-c2ccnc3[nH]c(C4CC4)cc23)cc1` [Example 145a, 4-(2-Cyclopropyl-1H-pyrrolo[2,3-b]pyridin-4-yl)-N-(2-hydroxyethyl)-benzenesulfonamide], the ED50 is below 20 mg/kg.

The values above are taken from patent US20080146606A1, “NOVEL COMPOUNDS” (priority 2006, published 2008).
